Assay [1] deals with Phosphatidylinositol 4-kinase alpha (Homo sapiens, UniProt P42356). The assay can be described thus: Selectivity interaction (Adapta Assay) EUB0001632a PI4KA. Particulars: at 10 µM.
The target of assay [2] is Tyrosine-protein kinase FRK (Homo sapiens) (UniProt P42685). Briefly: Selectivity interaction (Ambit KINOMEscan and KiNATiv profiling in Jurkat cells) EUB0000090b FRK. The assay is classed as cell-based. Particulars: at 1 µM.
For assay [3], the target named is Mast/stem cell growth factor receptor Kit (Homo sapiens, UniProt P10721). Particulars: at 10 µM.
Assay [4] addresses T1, Mitogen-activated protein kinase kinase kinase 5 (Homo sapiens) (UniProt Q99683).
T1 sequence (whole entry): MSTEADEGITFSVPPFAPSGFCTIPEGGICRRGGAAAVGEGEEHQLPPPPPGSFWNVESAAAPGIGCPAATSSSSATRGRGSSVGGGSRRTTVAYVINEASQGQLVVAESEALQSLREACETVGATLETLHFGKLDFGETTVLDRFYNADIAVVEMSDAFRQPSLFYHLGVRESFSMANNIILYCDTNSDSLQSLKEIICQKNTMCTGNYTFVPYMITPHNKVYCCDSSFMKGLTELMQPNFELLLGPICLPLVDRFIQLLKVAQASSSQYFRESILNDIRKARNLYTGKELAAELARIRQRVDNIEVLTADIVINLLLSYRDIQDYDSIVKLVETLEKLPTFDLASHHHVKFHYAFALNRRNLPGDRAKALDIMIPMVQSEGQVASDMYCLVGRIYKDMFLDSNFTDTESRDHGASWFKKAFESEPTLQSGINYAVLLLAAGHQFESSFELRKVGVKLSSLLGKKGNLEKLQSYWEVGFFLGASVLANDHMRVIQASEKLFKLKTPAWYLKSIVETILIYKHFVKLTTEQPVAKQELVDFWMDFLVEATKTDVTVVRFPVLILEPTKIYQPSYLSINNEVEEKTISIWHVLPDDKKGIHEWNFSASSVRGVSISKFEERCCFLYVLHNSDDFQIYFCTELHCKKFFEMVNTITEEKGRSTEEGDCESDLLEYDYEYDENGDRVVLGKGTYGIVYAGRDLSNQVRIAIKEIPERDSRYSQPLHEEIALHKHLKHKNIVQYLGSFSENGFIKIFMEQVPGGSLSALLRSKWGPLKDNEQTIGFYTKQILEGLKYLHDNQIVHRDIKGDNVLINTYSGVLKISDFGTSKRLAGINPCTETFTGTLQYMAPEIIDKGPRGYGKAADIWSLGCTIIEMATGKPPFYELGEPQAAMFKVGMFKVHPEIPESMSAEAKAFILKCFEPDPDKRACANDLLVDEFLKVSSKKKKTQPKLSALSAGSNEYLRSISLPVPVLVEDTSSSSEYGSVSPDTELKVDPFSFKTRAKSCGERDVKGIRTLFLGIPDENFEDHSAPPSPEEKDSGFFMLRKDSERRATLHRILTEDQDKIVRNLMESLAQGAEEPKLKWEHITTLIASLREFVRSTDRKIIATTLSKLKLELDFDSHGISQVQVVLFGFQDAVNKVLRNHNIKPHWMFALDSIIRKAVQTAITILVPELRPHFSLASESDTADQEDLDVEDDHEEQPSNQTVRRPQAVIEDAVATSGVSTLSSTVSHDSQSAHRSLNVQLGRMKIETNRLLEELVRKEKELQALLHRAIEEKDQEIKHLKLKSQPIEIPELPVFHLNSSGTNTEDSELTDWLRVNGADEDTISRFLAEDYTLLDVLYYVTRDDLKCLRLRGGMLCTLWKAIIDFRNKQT
The assay can be described thus: Selectivity interaction (KinomeScan (DiscoverX)) EUB0000655a MAP3K5. Particulars: at 10 µM.

The target in assay [5] is Serine/threonine-protein kinase PAK 4 (Homo sapiens, UniProt O96013). Briefly: Selectivity interaction (KinomeScan (DiscoverX)) EUB0000655a PAK4. Particulars: at 10 µM.
The target in assay [6] is Casein kinase I isoform gamma-1 (Homo sapiens) (UniProt Q9HCP0). The assay can be described thus: Selectivity interaction (KinomeScan (DiscoverX)) EUB0001619a CSNK1G1. Particulars: at 1 µM.
The target in assay [7] is Mitogen-activated protein kinase 9 (Homo sapiens, UniProt P45984). The assay can be described thus: Selectivity interaction (KinomeScan (DiscoverX)) EUB0001619a MAPK9. Particulars: at 1 µM.
Assay [8] concerns the target STE20-like serine/threonine-protein kinase (Homo sapiens, UniProt Q9H2G2). The assay can be described thus: Selectivity interaction (KinomeScan (DiscoverX)) EUB0001619a SLK. Particulars: at 1 µM.
The target in assay [9] is Calcium/calmodulin-dependent protein kinase type II subunit alpha (Homo sapiens, UniProt Q9UQM7). Briefly: Selectivity interaction (ActivX KiNativ screen (kinase selectivity in THP-1 cell lysates)) EUB0000639a CAMK2A. Particulars: lysate. The assay is classed as subcellular.
Assay [10] has as its target Calcium/calmodulin-dependent protein kinase type II subunit delta (Homo sapiens) (UniProt Q13557). The assay can be described thus: Selectivity interaction (ActivX KiNativ screen (kinase selectivity in THP-1 cell lysates)) EUB0000639a CAMK2D. The assay is classed as subcellular. Particulars: lysate, at 0.04 µM.
Assay [11] addresses Tyrosine-protein kinase FRK (Homo sapiens) (UniProt P42685). Briefly: Selectivity interaction (Kinase panel (Invitrogen)) EUB0000639a FRK. Particulars: at 200 nM.
The target of assay [12] is Serine/threonine-protein kinase VRK2 (Homo sapiens) (UniProt Q86Y07). The assay can be described thus: Selectivity interaction (KinomeScan (DiscoverX)) EUB0001049a VRK2. Particulars: at 1 µM.
Assay [13] has as its target Peroxisome proliferator-activated receptor gamma (Homo sapiens) (UniProt P37231). The assay can be described thus: Selectivity interaction (Eurofins CEREP Diversity Profile (receptors and ion channels)) EUB0000279b PPARG. Particulars: at 10 µM.
Assay [14] addresses Cyclin-dependent kinase-like 1 (Homo sapiens) (UniProt Q00532). The assay can be described thus: Selectivity interaction (KinomeScan (DiscoverX)) EUB0000092b CDKL1. Particulars: at 10 µM.

Structures are written as SMILES.

Sequence of Calcium/calmodulin-dependent protein kinase type II subunit alpha (Q9UQM7 whole entry): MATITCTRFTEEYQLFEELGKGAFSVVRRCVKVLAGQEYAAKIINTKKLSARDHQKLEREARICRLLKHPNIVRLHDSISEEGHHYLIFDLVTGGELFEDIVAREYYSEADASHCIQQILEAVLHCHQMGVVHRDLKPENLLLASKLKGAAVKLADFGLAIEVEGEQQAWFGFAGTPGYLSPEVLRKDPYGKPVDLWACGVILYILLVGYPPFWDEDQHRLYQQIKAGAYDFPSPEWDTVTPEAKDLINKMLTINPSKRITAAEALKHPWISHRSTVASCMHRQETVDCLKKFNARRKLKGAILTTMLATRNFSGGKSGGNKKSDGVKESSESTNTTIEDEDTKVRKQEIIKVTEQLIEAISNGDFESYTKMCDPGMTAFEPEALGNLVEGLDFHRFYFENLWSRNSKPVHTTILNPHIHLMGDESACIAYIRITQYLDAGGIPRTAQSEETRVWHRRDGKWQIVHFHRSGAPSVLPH
Sequence of Tyrosine-protein kinase FRK (Homo sapiens) (P42685 whole entry): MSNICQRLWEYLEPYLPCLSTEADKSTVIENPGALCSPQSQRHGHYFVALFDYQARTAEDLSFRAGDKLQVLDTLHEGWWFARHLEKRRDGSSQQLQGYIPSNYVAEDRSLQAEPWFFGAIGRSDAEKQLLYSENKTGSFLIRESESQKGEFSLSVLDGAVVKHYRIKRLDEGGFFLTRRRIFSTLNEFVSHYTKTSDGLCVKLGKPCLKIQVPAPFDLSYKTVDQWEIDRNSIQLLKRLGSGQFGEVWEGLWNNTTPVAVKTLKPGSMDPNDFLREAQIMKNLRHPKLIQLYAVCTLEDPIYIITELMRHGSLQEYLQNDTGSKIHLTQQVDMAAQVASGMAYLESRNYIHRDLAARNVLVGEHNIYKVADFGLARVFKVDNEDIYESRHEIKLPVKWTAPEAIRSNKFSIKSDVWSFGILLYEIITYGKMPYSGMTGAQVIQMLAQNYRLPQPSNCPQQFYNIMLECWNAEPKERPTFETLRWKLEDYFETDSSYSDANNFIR
Sequence of Peroxisome proliferator-activated receptor gamma (Homo sapiens) (P37231 whole entry): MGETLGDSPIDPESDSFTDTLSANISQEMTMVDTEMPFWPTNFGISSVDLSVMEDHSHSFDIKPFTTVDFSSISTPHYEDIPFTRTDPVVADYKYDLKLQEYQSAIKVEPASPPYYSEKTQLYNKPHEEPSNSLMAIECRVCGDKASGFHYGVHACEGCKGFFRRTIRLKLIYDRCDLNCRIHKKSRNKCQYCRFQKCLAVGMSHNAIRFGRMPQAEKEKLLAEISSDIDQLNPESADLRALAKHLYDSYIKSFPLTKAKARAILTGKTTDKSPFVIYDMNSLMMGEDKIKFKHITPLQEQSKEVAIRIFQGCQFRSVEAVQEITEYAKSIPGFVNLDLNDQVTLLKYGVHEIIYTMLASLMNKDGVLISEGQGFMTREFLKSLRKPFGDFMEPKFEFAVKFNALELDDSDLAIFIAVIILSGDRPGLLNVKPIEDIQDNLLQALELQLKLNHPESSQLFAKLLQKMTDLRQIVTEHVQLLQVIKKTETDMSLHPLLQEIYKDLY
Sequence of Casein kinase I isoform gamma-1 (Homo sapiens) (Q9HCP0 whole entry, looked up, canonical isoform): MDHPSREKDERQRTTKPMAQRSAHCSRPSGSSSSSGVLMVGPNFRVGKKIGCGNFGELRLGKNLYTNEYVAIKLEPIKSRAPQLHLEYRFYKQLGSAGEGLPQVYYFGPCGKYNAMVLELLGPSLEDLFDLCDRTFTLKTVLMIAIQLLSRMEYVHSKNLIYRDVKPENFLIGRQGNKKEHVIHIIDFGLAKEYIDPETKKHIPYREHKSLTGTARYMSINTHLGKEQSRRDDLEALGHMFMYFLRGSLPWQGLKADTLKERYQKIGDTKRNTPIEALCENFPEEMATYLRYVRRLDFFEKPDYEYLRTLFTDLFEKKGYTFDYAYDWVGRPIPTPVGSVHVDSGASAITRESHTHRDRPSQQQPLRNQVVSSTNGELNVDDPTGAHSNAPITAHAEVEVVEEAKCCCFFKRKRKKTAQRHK
Sequence of Calcium/calmodulin-dependent protein kinase type II subunit delta (Homo sapiens) (Q13557 whole entry): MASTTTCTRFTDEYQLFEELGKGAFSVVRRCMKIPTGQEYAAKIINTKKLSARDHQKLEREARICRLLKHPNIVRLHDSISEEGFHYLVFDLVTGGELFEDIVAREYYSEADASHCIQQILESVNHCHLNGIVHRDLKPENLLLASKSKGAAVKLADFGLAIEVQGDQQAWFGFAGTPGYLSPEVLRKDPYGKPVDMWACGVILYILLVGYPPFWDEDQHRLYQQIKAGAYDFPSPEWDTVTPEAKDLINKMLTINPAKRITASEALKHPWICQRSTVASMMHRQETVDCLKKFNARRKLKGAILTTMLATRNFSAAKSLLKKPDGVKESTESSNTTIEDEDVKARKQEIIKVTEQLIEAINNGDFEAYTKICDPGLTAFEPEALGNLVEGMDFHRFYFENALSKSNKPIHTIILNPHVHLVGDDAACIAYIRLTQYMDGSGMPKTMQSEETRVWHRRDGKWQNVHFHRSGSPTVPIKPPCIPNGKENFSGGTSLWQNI
Sequence of Serine/threonine-protein kinase VRK2 (Homo sapiens) (Q86Y07 whole entry): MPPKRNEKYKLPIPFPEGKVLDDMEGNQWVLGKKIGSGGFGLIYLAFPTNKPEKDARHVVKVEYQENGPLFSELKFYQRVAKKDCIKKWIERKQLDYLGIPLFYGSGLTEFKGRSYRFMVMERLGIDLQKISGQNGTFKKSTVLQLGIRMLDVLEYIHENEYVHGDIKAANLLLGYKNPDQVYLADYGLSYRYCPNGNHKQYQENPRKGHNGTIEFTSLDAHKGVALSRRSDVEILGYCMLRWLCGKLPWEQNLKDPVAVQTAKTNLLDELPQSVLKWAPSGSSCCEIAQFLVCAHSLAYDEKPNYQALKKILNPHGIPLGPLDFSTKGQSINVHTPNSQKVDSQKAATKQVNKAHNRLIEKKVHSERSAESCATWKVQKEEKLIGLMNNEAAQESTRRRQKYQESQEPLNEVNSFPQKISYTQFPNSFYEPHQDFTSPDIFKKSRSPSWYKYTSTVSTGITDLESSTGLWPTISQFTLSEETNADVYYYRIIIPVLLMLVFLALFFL
Sequence of Mitogen-activated protein kinase 9 (P45984 whole entry, looked up): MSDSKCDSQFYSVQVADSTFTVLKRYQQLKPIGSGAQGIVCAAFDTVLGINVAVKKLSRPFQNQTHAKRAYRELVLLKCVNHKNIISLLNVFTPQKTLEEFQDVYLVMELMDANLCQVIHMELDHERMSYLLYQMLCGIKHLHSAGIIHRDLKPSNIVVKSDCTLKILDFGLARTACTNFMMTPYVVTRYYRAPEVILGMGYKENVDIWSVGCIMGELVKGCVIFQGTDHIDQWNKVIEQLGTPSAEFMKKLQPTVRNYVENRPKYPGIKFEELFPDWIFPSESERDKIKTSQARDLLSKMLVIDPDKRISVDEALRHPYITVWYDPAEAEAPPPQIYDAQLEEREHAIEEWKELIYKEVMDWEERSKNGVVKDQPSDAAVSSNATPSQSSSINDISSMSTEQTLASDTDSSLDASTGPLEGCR
Sequence of Serine/threonine-protein kinase PAK 4 (O96013 whole entry, looked up, canonical isoform): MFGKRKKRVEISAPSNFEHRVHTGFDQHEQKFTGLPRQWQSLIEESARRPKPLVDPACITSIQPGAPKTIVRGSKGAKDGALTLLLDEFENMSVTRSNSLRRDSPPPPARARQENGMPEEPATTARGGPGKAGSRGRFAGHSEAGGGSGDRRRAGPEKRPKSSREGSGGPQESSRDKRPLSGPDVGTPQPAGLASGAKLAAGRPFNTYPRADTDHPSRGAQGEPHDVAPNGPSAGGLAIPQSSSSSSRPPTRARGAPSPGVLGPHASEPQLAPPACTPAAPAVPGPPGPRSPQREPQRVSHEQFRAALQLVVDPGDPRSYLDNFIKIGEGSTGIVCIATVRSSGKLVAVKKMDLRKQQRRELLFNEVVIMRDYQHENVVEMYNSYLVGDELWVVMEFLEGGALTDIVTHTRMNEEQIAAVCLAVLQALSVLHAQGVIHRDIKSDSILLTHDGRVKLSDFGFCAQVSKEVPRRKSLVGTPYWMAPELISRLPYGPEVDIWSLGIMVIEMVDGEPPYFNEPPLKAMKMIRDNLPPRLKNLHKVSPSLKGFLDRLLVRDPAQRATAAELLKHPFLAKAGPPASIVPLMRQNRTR
Sequence of Mast/stem cell growth factor receptor Kit (P10721 whole entry): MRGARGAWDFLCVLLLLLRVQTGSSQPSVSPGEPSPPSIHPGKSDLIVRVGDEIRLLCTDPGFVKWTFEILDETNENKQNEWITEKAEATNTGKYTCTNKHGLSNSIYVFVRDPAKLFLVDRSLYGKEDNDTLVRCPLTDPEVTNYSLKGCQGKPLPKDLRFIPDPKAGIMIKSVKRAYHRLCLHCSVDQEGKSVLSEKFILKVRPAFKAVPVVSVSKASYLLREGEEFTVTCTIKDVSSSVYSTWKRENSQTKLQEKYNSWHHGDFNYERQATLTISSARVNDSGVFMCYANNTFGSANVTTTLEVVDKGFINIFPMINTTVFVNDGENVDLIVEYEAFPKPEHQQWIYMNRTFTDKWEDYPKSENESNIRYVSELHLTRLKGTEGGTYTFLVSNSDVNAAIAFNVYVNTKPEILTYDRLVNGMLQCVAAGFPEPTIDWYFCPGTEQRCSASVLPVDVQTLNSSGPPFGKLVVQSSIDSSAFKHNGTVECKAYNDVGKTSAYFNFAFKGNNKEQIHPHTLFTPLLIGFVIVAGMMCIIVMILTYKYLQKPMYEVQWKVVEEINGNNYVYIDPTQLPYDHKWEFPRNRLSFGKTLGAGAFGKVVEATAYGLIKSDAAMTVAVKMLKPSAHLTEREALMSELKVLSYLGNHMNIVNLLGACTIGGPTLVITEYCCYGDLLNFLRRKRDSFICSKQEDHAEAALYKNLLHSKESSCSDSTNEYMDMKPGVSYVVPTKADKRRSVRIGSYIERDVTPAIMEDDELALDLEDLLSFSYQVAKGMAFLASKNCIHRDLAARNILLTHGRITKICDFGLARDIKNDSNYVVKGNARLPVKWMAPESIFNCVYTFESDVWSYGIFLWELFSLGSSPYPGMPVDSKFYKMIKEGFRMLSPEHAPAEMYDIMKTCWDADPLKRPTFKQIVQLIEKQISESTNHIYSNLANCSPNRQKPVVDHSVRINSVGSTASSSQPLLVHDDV

As to `Cn1cc(-n2cnc3c(NCc4nc5cc(Cl)c(Cl)cc5[nH]4)nc(N4CCOCC4)nc32)cn1`, the % of inhibition in assay [1] was -3.32%.
Consider `CN(C)C/C=C/C(=O)Nc1ccc(C(=O)N2CCCC(Nc3ncc(Cl)c(-c4c[nH]c5ccccc45)n3)C2)cc1` (stereo not drawn), for which the % of control in [2] worked out at 89%.
`Cc1cc([C@@H](C)Nc2ccccc2C(=O)O)c2nc(N3CCOCC3)cc(=O)n2c1` [AZD-6482] yielded a % of control in [3] of 91%.
On to `CN(C)CCOc1ccc(-c2nc(-c3ccncc3)c(-c3ccc4c(c3)CC/C4=N\O)[nH]2)cc1`, for which the % of control was found to be 94% in assay [4] and 92% in assay [5].
As for `N#Cc1cccc(-c2c[nH]c3ncnc(N4CCOCC4)c23)c1`, the % of control in [6] is 100%; in [7], 87%; in assay [8] it was 25%.
Turning to `CC[C@@H]1[C@H](F)C(=O)N[C@@H]1COc1nccc2cc(C(N)=O)c(OC)cc12` [ZIMLOVISERTIB], the % of inhibition in [9] (at 0.01 µM) worked out at 3.3%; in assay [9] (at 0.04 µM) it was 16.7%; in [9] (at 0.2 µM), 6.9%; in [9] (at 1 µM), 25.1%; in [9] (at 5 µM) it was 56.2%; in [10], 16.7%. Further, the % of inhibition in assay [11] is 6.43%.
Regarding `COc1cc(Nc2nc(C)cc(-c3cnn4nc(OC)ccc34)n2)cc(C(F)(F)F)c1`, in assay [12], the % of control was found to be 100%.
Turning to `CC(=O)c1cc(-c2ccccc2OCC2CC2)c2ncccn12`, the % of control in [13] turned out to be 105%.
On to `CCC(=O)N1CCN(c2ccc(-n3c(=O)ccc4cnc5ccc(-c6cnc7ccccc7c6)cc5c43)cc2C(F)(F)F)CC1`, for which the % of control in [14] is 100%.
